According to patent publication US10532977B2, “Small molecule inhibitors of protein tyrosine phosphatases and uses thereof” (Indiana University Research and Technology Corporation, priority 2015, dated 2020):
Entries after “also recorded” stand apart in the source; their conditions may differ.

Legend:
Mtb-infected macrophages = test: Macrophage assay, growth of M. tuberculosis in IFN-γ activated J774 macrophages; type: cell-based, Mycobacterium tuberculosis; conditions: J774A.1 macrophages
M. tuberculosis H37Rv = test: Microplate Alamar Blue assay (MABA) MIC, H37Rv; type: cell-based, Mycobacterium tuberculosis
[1] = system: EGF-mediated ERK1/2 phosphorylation; test: EGF-mediated ERK1/2 phosphorylation, immunoblot, H1975 cells; type: cell-based, human; conditions: compound 7 at 40 μM
Description: Cell proliferation and immunoblot analysis. Human non-small cell lung carcinoma cell line H1975 was cultured at 37° C. and 5% CO2 in RPMI-1640 (Corning) supplemented with 10% fetal bovine serum (HyClone). Human breast cancer cell line MDA-MB-231 was cultured in DMEM supplemented with 10% fetal bovine serum. For cell proliferation assay, 2˜3×10^3 cells were seeded in each well of 96-well plates. After treating cells with compounds for 2 days, cells were incubated with 50 µg/ml MTT (3-(4,5-Dimethylthiazol-2-yl)-2,5-diphenyltetrazolium bromide) for ˜3-4 hours. Then, the culture medium was removed, DMSO was added to dissolve the formazan crystals. Wells containing only media were used for background correction. The optical density was measured spectrophotometrically at 540 nm. For signaling analysis, cells were serum-starved overnight followed by treatment with vehicle or compounds for 3 hours, and then either left un-stimulated or stimulated with 5 μg/ml EGF or 10 nM PMA (Sigma) for indicated time. Cells were lysed and the lysates were electrophoresed on a 10% polyacrylamide gel, and then transferred to a nitrocellulose membrane, and probed with anti-phospho-ERK1/2 and anti-ERK1/2 (Cell Signaling) antibodies followed by incubation with horseradish peroxidase-conjugated secondary antibodies. […]

SHP2 [2] = molecular target: T1, SHP2 (Homo sapiens, UniProt Q06124); test: SHP2 inhibition, pNPP substrate; type: biochemical
T1 sequence (Q06124 224-528): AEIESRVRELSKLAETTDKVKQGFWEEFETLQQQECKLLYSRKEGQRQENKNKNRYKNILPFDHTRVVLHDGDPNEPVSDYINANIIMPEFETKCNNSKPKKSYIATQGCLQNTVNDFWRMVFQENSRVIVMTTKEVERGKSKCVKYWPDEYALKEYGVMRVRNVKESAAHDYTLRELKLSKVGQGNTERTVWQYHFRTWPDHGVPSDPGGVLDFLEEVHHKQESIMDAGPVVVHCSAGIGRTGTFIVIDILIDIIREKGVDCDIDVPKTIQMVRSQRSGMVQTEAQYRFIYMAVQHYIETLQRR

PTPH1 = molecular target: T2, PTPH1 (Homo sapiens, UniProt P26045); test: PTPH1 inhibition, pNPP substrate; type: biochemical; conditions: pH 7
T2 sequence (P26045 1-913): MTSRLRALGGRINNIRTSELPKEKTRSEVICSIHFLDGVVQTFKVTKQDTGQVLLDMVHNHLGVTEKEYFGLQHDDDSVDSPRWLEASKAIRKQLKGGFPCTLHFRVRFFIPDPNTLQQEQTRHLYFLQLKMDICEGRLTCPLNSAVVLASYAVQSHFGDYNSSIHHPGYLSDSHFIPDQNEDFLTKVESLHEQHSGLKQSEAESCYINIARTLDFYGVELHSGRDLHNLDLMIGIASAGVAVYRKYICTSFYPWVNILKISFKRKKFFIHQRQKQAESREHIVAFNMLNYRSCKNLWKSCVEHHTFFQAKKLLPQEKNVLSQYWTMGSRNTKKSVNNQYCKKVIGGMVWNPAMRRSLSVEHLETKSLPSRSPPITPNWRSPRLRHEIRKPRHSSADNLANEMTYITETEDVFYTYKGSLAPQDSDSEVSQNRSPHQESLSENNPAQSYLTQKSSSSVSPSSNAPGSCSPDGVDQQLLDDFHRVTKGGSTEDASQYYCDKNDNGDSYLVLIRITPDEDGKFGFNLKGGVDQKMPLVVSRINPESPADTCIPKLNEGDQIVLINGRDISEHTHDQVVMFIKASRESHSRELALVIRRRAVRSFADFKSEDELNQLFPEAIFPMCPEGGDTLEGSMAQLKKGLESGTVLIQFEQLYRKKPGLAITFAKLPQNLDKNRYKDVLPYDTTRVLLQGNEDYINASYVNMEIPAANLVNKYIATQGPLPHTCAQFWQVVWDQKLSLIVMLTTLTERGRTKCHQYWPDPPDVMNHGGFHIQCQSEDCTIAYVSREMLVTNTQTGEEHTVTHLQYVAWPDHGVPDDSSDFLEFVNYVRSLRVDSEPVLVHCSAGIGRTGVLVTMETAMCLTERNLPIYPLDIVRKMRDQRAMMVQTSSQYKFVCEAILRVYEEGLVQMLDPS

FAP1 = FAP1 (Homo sapiens, UniProt Q12923); test: FAP1 inhibition, pNPP substrate; type: biochemical; conditions: pH 7
FAP1, sequence (Q12923 whole entry): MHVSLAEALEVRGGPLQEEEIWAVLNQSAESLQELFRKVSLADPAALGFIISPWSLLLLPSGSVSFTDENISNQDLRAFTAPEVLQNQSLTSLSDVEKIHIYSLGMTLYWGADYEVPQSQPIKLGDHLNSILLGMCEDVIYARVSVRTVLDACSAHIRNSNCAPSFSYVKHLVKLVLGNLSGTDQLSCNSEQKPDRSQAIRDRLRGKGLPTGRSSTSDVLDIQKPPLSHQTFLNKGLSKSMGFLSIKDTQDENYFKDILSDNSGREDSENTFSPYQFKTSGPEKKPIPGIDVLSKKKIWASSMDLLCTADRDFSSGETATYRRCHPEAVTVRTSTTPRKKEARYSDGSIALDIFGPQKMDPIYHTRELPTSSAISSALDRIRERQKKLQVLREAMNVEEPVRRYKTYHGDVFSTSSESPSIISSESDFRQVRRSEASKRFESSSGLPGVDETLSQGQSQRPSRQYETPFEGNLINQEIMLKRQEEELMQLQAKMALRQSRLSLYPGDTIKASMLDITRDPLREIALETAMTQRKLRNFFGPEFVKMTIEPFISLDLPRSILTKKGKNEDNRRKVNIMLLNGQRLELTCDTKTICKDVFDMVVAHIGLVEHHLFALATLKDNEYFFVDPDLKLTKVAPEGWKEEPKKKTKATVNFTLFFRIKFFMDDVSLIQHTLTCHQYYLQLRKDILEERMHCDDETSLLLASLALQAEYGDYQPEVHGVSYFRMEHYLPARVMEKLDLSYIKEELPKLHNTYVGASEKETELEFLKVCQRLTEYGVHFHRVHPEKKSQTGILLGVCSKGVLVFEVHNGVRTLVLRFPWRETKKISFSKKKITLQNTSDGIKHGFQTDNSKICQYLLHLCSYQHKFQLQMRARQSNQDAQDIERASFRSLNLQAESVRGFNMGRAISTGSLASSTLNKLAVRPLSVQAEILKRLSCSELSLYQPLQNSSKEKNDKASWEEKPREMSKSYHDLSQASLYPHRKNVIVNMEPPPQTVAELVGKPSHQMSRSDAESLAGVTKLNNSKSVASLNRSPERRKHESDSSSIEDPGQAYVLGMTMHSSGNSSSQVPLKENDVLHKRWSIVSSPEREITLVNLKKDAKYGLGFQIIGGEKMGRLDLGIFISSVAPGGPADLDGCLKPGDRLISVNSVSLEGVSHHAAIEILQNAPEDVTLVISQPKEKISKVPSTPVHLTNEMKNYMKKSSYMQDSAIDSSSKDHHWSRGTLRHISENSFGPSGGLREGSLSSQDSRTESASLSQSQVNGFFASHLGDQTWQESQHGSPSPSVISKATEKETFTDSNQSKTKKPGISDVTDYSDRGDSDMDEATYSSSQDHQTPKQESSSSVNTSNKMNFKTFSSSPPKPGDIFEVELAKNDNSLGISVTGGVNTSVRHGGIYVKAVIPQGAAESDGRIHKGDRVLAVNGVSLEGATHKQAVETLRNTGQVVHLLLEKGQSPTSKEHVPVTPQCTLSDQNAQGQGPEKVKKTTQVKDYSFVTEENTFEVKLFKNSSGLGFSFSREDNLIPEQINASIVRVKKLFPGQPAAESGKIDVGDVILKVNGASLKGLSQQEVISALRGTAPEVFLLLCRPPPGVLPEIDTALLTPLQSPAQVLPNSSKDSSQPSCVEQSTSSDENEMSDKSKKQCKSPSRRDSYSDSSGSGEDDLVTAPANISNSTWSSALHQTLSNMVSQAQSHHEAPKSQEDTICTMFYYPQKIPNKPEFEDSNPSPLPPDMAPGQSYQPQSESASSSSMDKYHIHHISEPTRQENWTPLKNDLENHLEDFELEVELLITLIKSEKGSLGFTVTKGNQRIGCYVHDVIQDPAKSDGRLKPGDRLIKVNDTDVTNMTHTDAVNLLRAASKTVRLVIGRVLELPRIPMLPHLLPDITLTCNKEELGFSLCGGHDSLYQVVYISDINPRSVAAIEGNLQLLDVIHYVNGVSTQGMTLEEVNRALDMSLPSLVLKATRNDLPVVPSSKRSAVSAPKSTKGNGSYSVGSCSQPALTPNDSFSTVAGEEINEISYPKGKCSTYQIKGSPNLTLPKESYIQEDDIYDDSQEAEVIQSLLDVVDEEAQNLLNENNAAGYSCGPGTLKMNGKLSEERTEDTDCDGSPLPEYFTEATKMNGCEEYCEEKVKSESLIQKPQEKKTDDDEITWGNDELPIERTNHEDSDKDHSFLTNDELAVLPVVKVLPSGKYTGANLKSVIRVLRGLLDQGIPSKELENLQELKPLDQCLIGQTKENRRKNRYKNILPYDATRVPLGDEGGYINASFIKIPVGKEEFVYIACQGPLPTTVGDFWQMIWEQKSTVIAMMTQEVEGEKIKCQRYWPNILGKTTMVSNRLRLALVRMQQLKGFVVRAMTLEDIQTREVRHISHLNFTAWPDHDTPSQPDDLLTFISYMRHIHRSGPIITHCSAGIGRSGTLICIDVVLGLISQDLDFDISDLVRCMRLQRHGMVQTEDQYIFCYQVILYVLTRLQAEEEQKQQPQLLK

PEST = PEST (Homo sapiens, UniProt Q05209); test: PEST inhibition, pNPP substrate; type: biochemical; conditions: pH 7
PEST, sequence (Q05209 whole entry): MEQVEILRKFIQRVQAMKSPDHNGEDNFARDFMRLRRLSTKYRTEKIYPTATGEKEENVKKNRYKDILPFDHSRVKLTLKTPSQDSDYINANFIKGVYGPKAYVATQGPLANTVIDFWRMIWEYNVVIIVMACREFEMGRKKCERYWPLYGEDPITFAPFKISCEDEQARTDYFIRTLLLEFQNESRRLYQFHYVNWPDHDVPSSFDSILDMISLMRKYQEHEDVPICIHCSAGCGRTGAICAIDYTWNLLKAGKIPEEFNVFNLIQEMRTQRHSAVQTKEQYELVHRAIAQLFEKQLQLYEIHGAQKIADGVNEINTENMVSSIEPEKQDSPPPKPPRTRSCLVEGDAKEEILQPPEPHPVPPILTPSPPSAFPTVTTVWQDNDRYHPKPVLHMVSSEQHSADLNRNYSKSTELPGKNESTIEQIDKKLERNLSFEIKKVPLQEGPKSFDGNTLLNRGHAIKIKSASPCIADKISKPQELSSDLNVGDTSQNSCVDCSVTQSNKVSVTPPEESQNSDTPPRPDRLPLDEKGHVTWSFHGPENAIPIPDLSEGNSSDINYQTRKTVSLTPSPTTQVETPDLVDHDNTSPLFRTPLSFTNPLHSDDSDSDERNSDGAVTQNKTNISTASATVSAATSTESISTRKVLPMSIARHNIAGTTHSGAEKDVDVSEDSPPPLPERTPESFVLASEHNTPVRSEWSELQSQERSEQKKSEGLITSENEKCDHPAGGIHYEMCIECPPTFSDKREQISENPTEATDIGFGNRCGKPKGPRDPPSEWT

VHR = VHR (Homo sapiens, UniProt P51452); test: VHR inhibition, pNPP substrate; type: biochemical; conditions: pNPP at Km, pH 7.0, 25° C.
VHR, sequence (P51452 whole entry): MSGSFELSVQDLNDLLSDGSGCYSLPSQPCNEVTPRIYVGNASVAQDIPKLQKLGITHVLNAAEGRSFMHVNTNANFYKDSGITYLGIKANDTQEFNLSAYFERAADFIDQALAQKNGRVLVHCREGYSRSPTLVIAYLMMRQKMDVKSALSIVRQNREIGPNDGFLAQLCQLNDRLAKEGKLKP

HePTP = HePTP (Homo sapiens, UniProt P35236); test: HePTP inhibition, pNPP substrate; type: biochemical; conditions: pNPP at Km, pH 7.0, 25° C.
Ssu72 = molecular target: T3, Ssu72 (Homo sapiens, UniProt Q9NP77); test: Ssu72 inhibition, pNPP substrate; type: biochemical; conditions: pH 7
T3 construct: made in house
T3 sequence (Q9NP77 whole entry): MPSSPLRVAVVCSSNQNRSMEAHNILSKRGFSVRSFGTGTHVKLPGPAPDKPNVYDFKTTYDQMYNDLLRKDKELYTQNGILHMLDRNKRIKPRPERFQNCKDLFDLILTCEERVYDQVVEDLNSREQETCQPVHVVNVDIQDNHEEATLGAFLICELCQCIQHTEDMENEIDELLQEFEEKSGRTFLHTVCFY

LYP = LYP (Homo sapiens, UniProt Q9Y2R2); test: LYP inhibition, pNPP substrate; type: biochemical; conditions: pNPP at Km, pH 7.0, 25° C.
LYP, sequence (Q9Y2R2 whole entry): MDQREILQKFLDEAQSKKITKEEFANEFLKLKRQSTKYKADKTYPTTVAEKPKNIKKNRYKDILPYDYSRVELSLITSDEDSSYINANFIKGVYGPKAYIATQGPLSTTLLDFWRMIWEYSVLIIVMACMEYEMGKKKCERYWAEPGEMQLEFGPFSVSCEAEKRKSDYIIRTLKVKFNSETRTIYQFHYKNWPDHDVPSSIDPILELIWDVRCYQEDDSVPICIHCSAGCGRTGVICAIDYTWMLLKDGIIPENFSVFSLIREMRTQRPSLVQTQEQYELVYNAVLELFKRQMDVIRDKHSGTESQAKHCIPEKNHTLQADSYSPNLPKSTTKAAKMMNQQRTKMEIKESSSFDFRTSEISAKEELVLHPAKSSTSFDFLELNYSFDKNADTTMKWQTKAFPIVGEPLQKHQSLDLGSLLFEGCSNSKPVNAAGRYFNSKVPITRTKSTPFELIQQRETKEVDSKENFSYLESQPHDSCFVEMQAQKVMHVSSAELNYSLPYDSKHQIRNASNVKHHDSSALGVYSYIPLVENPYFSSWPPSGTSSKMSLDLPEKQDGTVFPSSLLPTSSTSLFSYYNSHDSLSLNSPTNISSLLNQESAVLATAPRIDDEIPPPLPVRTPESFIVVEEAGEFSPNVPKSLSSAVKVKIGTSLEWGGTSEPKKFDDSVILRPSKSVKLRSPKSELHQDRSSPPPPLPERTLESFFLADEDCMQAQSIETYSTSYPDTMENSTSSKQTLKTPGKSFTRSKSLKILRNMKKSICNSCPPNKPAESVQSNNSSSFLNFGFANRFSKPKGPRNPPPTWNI

PTP1B = PTP1B (Homo sapiens, UniProt P18031); test: PTP1B inhibition, pNPP substrate; type: biochemical; conditions: pNPP at Km, pH 7.0, 25° C.
TcPTP = TcPTP (Homo sapiens, UniProt P17706); test: TcPTP inhibition, pNPP substrate; type: biochemical; conditions: pH 7
mPTPA = mPTPA (Mycobacterium tuberculosis, UniProt P9WIA1); type: biochemical
mPTPA, sequence (P9WIA1 whole entry, looked up): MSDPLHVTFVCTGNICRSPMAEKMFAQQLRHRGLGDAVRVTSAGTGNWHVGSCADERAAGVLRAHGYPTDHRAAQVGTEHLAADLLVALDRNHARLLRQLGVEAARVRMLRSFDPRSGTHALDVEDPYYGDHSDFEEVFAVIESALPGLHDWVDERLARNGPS

Laforin = molecular target: T4, Laforin (Homo sapiens, UniProt O95278); test: Laforin inhibition, pNPP substrate; type: biochemical
T4 sequence (O95278 1-331): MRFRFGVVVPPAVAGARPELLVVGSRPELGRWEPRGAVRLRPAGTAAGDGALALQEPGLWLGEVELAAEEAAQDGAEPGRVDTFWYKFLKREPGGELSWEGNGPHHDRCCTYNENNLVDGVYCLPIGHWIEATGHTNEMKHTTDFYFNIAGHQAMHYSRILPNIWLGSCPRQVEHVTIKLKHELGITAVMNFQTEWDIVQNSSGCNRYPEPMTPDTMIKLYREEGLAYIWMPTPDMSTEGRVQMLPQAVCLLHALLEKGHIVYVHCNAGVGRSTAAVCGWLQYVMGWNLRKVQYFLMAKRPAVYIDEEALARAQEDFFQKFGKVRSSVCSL

mPTPB = mPTPB (Mycobacterium tuberculosis, UniProt I6WXK4); test: biochemical
mPTPB, sequence (I6WXK4 whole entry): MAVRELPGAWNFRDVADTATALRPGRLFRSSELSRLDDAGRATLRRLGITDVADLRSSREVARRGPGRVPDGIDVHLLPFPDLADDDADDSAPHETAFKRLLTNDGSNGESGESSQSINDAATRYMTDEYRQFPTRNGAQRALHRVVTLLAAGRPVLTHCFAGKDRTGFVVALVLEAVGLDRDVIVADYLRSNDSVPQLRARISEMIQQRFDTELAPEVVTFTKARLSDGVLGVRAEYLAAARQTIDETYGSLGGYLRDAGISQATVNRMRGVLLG

LMWPTP = test: Insulin signaling in HepG2 cells; type: cell-based, human; conditions: pretreated 1 hour, 5 nM insulin 5 minutes
Description: To assess the effects of L335N15 in insulin signaling pathway, HepG2 cells were pretreated with L335N15 for 1 hour and were subsequently stimulated with 5 nM insulin for 5 minutes. […] Consistent with IR activation, downstream Akt phosphorylation (Ser473) was increased. […] Accordingly, LMWPTP inhibitors such as L335N15 described herein can be used to develop agents for the treatment of type 2 diabetes and insulin resistance.

SHP2 [3] = molecular target: SHP2 (Homo sapiens, UniProt Q06124); test: Covalent adduct formation with SHP2, QTOF ESI-MS / LC-MS; conditions: pH 7, cefsulodin 3 hours, PVS 10 minutes
Description: Characterization of cefsulodin-mediated SHP2 inhibition by Q-TOF ESI-MS, LC-MS, and HPLC. Agilent 6520 Accurate-Mass was used for the Q-TOF ESI-MS studies. Water and acetonitrile (both containing 0.1% formic acid) were used as eluent (80% water, flow 50 μL/min, run time 5 minutes). ESI positive mode was used with mass range from 300 to 1700, the gas temperature was 325° C., and vaporizer temperature was: […] The sample was adjusted to have a concentration at 0.1 mg/mL, the injection volume of each sample was 1 μL. Mass hunter software was used for protein deconvolution data analysis to calculate the molecular weight of the protein.
Agilent Technologies 6130 quadrupole LC-MS instrument was used for the LC-MS studies. A C18 reserved phase column (phenomenex, 50×4.6 mm) was used as stationary phase, water and methanol (both containing 0.1% formic acid) were used as mobile phase (gradient: 0-100% methanol, flow 0 8 ml/min, run time 15 minutes), and UV absorbance at the fixed wavelength of 254 nm and positive and negative ESI-MS data were recorded. The sample was adjusted to have a concentration at 0.1 mg/mL, and the injection volume of each sample was 0.2 μL. The retention time and corresponding ESI-MS data were used as identity of molecules.

Question: Which results are given for `Cc1c(Br)cc(NC(=O)CS(=O)(=O)O)cc1Br`?
Answer: anti-Mtb activity in Mtb-infected macrophages (Mtb-infected macrophages): markedly decrease bacterial load; activity in standard MIC assays (M. tuberculosis H37Rv): devoid of activity

Question: For `O=C(Nc1ccccc1)C(=O)Nc1ccc(NC(=O)C(c2ccccc2)S(=O)(=O)O)cc1` (stereo not drawn) [Compound 7, 2-oxo-2-((4-(2-oxo-2-(phenylamino)acetamido)phenyl)amino)-1-phenylethanesulfonic acid], which “EGF-mediated ERK1/2 phosphorylation in H1975 cells” value [1] is on record?
Answer: The value was “no appreciable effect; also recorded: failed to block EGF-mediated ERK1/2 phosphorylation”.

Question: What about the “inhibitory activity against SHP2 at 50 μM” value (SHP2 [2]; 50 μM) of the same compound?
Answer: The value was “no inhibition”.

Question: How did the “anti-Mtb activity in Mtb-infected macrophages” value (Mtb-infected macrophages) turn out when `O=C(O)c1cc2c(C#Cc3cccc(C(F)(F)F)c3)c(-c3ccccc3)oc2cc1O` [Compound L01Z08] was run?
Answer: Its value is “potent anti-Mtb activity”.

Question: With `O=C(Nc1ccc2nc(C(F)(F)F)[nH]c2c1)C(c1ccccc1)S(=O)(=O)O` (stereo not drawn) [Compound L319M54] as the compound, how does the IC50 (PTPH1) read?
Answer: The IC50 was over 200 µM.

Question: How did the IC50 (FAP1) turn out when `O=C(Nc1ccc(-n2ccnc2)cc1)C(c1ccccc1)S(=O)(=O)O` (stereo not drawn) [Compound L319M63] was run?
Answer: Its IC50 is over 100 µM.

Question: What about the IC50 (PEST) of the same compound?
Answer: Its IC50 is over 100 µM.

Question: And the IC50 (VHR)?
Answer: Its IC50 is over 100 µM.

Question: And the IC50 (HePTP)?
Answer: Its IC50 is over 100 µM.

Question: What about the IC50 (Ssu72) of the same compound?
Answer: Its IC50 is over 100 µM.

Question: And the IC50 (LYP)?
Answer: The IC50 was over 100 µM.

Question: What about the IC50 (PTP1B) of the same compound?
Answer: Its IC50 is over 100 µM.

Question: And the IC50 (SHP2 [2]; pNPP at Km, pH 7.0, 25° C.)?
Answer: The IC50 was over 100 µM.

Question: What about the IC50 (TcPTP) of the same compound?
Answer: Its IC50 is over 100 µM.

Question: `O=C(Nc1ccc(N2CCOCC2)cc1)C(c1ccccc1)S(=O)(=O)O` (stereo not drawn) [Compound L319M68] was tested. Which IC50 (PTPH1) did it give?
Answer: The IC50 was over 200 µM.

Question: And the “mode of mPTPA inhibition” value (mPTPA)?
Answer: Its value is “competitive inhibitor”.

Question: How did the “specificity for Laforin over LMPTP” value (Laforin; ratio of IC50) turn out when `O=C(Nc1nnc(-c2ccccc2)s1)C(c1ccccc1)S(=O)(=O)O` (stereo not drawn) [Compound L319M73-2] was run?
Answer: Its value is 8 fold.

Question: With `O=C(Nc1cnc2ccccc2c1)C(c1ccccc1)S(=O)(=O)O` (stereo not drawn) [Compound L319M88] as the compound, how does the IC50 (PTPH1) read?
Answer: The IC50 was over 200 µM.

Question: How did the “inhibition against Laforin at 100 μM” value (Laforin) turn out when `O=C(Nc1nc2ccc(O[N+](=O)[O-])cc2s1)C(c1ccccc1)S(=O)(=O)O` (stereo not drawn) [Compound L319N15-07] was run?
Answer: The value was “no detectable inhibition”.

Question: Which IC50 (PTPH1) does the source give for `O=C(Nc1nc2ccccc2s1)C(c1ccccc1)S(=O)(=O)O` (stereo not drawn) [Compound L319N15] here?
Answer: The IC50 was over 200 µM.

Question: For `O=C(C(c1ccccc1)S(=O)(=O)O)N1CCC(c2ccc(Cl)c(Cl)c2)CC1` (stereo not drawn) [Compound L319N47], which “increase in potency against mPTPB compared to SPAA” value (mPTPB) is on record?
Answer: Its value is 2000 fold.

Question: With `O=C(CS(=O)(=O)O)Nc1nc2ccc([N+](=O)[O-])cc2s1` [Compound L335N15-07] as the compound, how does the “inhibition against Laforin at 100 μM” value (Laforin) read?
Answer: Its value is “no detectable inhibition”.

Question: Which results are given for `O=C(CS(=O)(=O)O)Nc1nc2ccccc2s1` [Compound L335N15]?
Answer: Akt phosphorylation (Ser473) in HepG2 cells (LMWPTP): increased; IR Tyr1162/1163 phosphorylation in HepG2 cells (LMWPTP; relative to DMSO): enhanced IR Tyr1162/1163 phosphorylation in a dose-dependent fashion

Question: How did the IC50 (mPTPB) turn out when `NC(=O)C(c1ccccc1)S(=O)(=O)O` (stereo not drawn) [SPAA, α-sulfophenylacetic amide, reference compound] was run?
Answer: Its IC50 is 200 µM.

Question: With `C=CS(=O)(=O)c1ccccc1` [phenyl vinyl sulfone] as the compound, how does the “covalent adduct formation with SHP2” value (SHP2 [3]) read?
Answer: Its value is “formed a covalent adduct”.
